Measurements as given in ChEMBL document CHEMBL5352426, “Synthesis and anti-tumor activity of nitrogen-containing derivatives of the natural product diphyllin” (Eur J Med Chem, 2022).
In brackets after ≈: the same amount, converted by molar mass.

Legend:
[1] = Metabolic stability in mouse liver microsome assessed as half life; format: ADME; conditions: liver microsomes
[2] = Toxicity in C57BL/6 mouse xenografted with […] cells assessed as body weight loss at 10 mg/kg, ip administered every two days for 20 days; format: organism-based; conditions: in vivo, 480 h, time 20 day
[3] = Metabolic stability in human liver microsome assessed as hepatic clearance; format: ADME; conditions: microsomes
CFPAC-1 [4] = test: Induction of apoptosis in human CFPAC-1 cells assessed as late apoptotic cells at 10 uM incubated for 24 hrs by annexin V-FITC/PI staining based flow cytometry (reference value: 3.88 %); format: functional
[5] = Metabolic stability in human liver microsome assessed as half life; format: ADME; conditions: liver microsomes
[6] = Metabolic stability in mouse liver microsome assessed as hepatic clearance; format: ADME; conditions: microsomes
Panc02 [7] = test: Antiproliferative activity against mouse Panc02 cells assessed as inhibition of cell proliferation at 1 uM incubated for 72 hrs by SRB assay relative to control; format: functional
CFPAC-1 [8] = test: Induction of cell cycle arrest in human CFPAC-1 cells assessed as accumulation at G1 phase at 1000 nM incubated for 24 hrs by flow cytometry (reference value: 57.6 %); format: functional
[9] = Antiproliferative activity against human L02 cells assessed as inhibition of cell proliferation incubated for 72 hrs by SRB assay; format: toxicity, cell-based
CFPAC-1 [10] = test: Induction of apoptosis in human CFPAC-1 cells assessed as viable cells at 1 uM incubated for 24 hrs by annexin V-FITC/PI staining based flow cytometry (reference value: 92.9 %); format: functional; conditions: read-out: Activity
CFPAC-1 [11] = test: Induction of apoptosis in human CFPAC-1 cells assessed as necrotic cells at 1 uM incubated for 24 hrs by annexin V-FITC/PI staining based flow cytometry (reference value: 0.27 %); format: functional
CFPAC-1 [12] = test: Induction of cell cycle arrest in human CFPAC-1 cells assessed as accumulation at G1 phase at 10 nM incubated for 24 hrs by flow cytometry (reference value: 57.6 %); format: functional
[13] = Metabolic stability in human liver microsome assessed as intrinsic clearance; format: ADME; conditions: liver microsomes, read-out: CLH
CFPAC-1 [14] = test: Induction of apoptosis in human CFPAC-1 cells assessed as viable cells at 10 uM incubated for 24 hrs by annexin V-FITC/PI staining based flow cytometry (reference value: 92.9 %); format: functional; conditions: read-out: Activity
[15] = Antiproliferative activity against human L02 cells assessed as inhibition of cell proliferation at 1 uM incubated for 72 hrs by SRB assay relative to control; format: toxicity, cell-based
[16] = Toxicity in C57BL/6 mouse xenografted with […] cells assessed as drug tolerance at 10 mg/kg, ip administered every two days for 20 days; format: organism-based; conditions: in vivo, 480 h, time 20 day
CFPAC-1 [17] = test: Induction of apoptosis in human CFPAC-1 cells assessed as necrotic cells at 10 uM incubated for 24 hrs by annexin V-FITC/PI staining based flow cytometry (reference value: 0.27 %); format: functional
Panc02 [18] = test: Antiproliferative activity against mouse Panc02 cells assessed as inhibition of cell proliferation incubated for 72 hrs by SRB assay; format: functional, cell-based; conditions: Panc02, 72 h
[19] = Metabolic stability in mouse liver microsome assessed as intrinsic clearance; format: ADME; conditions: liver microsomes, read-out: CLH
CFPAC-1 [20] = test: Induction of cell cycle arrest in human CFPAC-1 cells assessed as accumulation at S phase at 10 nM incubated for 24 hrs by flow cytometry (reference value: 28.5 %); format: functional
MIA PaCa-2 [21] = test: Antiproliferative activity against human MIA PaCa-2 cells assessed as inhibition of cell proliferation incubated for 72 hrs by SRB assay; format: functional, cell-based; conditions: MIA PaCa-2, 72 h
CFPAC-1 [22] = test: Induction of cell cycle arrest in human CFPAC-1 cells assessed as accumulation at S phase at 1000 nM incubated for 24 hrs by flow cytometry (reference value: 28.5 %); format: functional
CFPAC-1 [23] = test: Induction of apoptosis in human CFPAC-1 cells assessed as early apoptotic cells at 10 uM incubated for 24 hrs by annexin V-FITC/PI staining based flow cytometry (reference value: 2.93 %); format: functional
CFPAC-1 [24] = test: Antiproliferative activity against human CFPAC-1 cells assessed as inhibition of cell proliferation at 1 uM incubated for 72 hrs by SRB assay relative to control; format: functional
CFPAC-1 [25] = test: Induction of cell cycle arrest in human CFPAC-1 cells assessed as accumulation at S phase at 100 nM incubated for 24 hrs by flow cytometry (reference value: 28.5 %); format: functional
CFPAC-1 [26] = test: Induction of cell cycle arrest in human CFPAC-1 cells assessed as accumulation at G2 phase at 1000 nM incubated for 24 hrs by flow cytometry (reference value: 11 %); format: functional
PaTu 8988t [27] = test: Antiproliferative activity against human PaTu 8988t cells assessed as inhibition of cell proliferation incubated for 72 hrs by SRB assay; format: functional, cell-based
CFPAC-1 [28] = test: Induction of cell cycle arrest in human CFPAC-1 cells assessed as accumulation at G1 phase at 100 nM incubated for 24 hrs by flow cytometry (reference value: 57.6 %); format: functional
CFPAC-1 [29] = test: Antiproliferative activity against human CFPAC-1 cells assessed as inhibition of cell proliferation incubated for 72 hrs by SRB assay; format: functional, cell-based; conditions: CFPAC-1, 72 h
CFPAC-1 [30] = test: Induction of cell cycle arrest in human CFPAC-1 cells assessed as accumulation at G2 phase at 100 nM incubated for 24 hrs by flow cytometry (reference value: 11 %); format: functional
CFPAC-1 [31] = test: Induction of apoptosis in human CFPAC-1 cells assessed as early apoptotic cells at 1 uM incubated for 24 hrs by annexin V-FITC/PI staining based flow cytometry (reference value: 2.93 %); format: functional
CFPAC-1 [32] = test: Induction of apoptosis in human CFPAC-1 cells assessed as late apoptotic cells at 1 uM incubated for 24 hrs by annexin V-FITC/PI staining based flow cytometry (reference value: 3.88 %); format: functional
Panc02 [33] = test: Antitumor activity against […] Panc02 cells xenografted in C57BL/6 mouse assessed as tumor growth inhibition at 10 mg/kg, ip administered every two days for 20 days by electronic caliper method relative to control; format: functional; conditions: Panc02, 480 h, time 20 day, read-out: TGI
MIA PaCa-2 [34] = test: Antiproliferative activity against human MIA PaCa-2 cells assessed as inhibition of cell proliferation at 1 uM incubated for 72 hrs by SRB assay relative to control; format: functional
[35] = Aqueous solubility of the compound at 1 to 2 mg measured after 24 hrs by HPLC-MS analysis; format: physicochemical; conditions: aqueous (not further specified), dose 1-2 mg
CFPAC-1 [36] = test: Induction of cell cycle arrest in human CFPAC-1 cells assessed as accumulation at G2 phase at 10 nM incubated for 24 hrs by flow cytometry (reference value: 11 %); format: functional
PaTu 8988t [37] = test: Antiproliferative activity against human PaTu 8988t cells assessed as inhibition of cell proliferation at 1 uM incubated for 72 hrs by SRB assay relative to control; format: functional

In the case of COc1cc2c(N)c3c(c(-c4ccc5c(c4)OCO5)c2cc1OC)C(=O)OC3, the half-life [1] is reported as 28.5 min, the Activity [2] is reported as “Non-Toxic” and the CLH [3] is reported as 9.6 mL/min/kg. The Activity (CFPAC-1 [4]) was 11%, the half-life [5] was 88.7 min and the CLH [6] was 61.3 mL/min/kg. The inhibition at 1 µM (Panc02 [7]) was 90%, the Activity (CFPAC-1 [8]) was 83.8% and the IC50 at 72 h [9] was 487 nM. The viability at 1 µM (CFPAC-1 [10]) was 84.8%, the Activity (CFPAC-1 [11]) was 0.4% and the Activity (CFPAC-1 [12]) was 74.3%. The microsomal CLint [13] was 15.6 µL/min/mg, the viability at 10 µM (CFPAC-1 [14]) was 86.1% and the inhibition at 72 h, 1 µM [15] was 34.4%. For the same compound, the Activity [16] was “Non-Toxic”, the Activity (CFPAC-1 [17]) was 0.69% and the IC50 (Panc02 [18]) was 19 nM. It also gave a microsomal CLint [19] of 48.7 µL/min/mg, an Activity (CFPAC-1 [20]) of 15.6% and an IC50 (MIA PaCa-2 [21]) of 11 nM. The Activity (CFPAC-1 [22]) was 10.3%, the Activity (CFPAC-1 [23]) was 2.21% and the inhibition at 1 µM (CFPAC-1 [24]) was 78.6%. The Activity (CFPAC-1 [25]) was 12.7%, the Activity (CFPAC-1 [26]) was 3.66% and the IC50 (PaTu 8988t [27]) was 37 nM. It also gave an Activity (CFPAC-1 [28]) of 80.9%, an IC50 (CFPAC-1 [29]) of 3 nM and an Activity (CFPAC-1 [30]) of 3.61%. For the same compound, the Activity (CFPAC-1 [31]) was 2.91%, the Activity (CFPAC-1 [32]) was 11.9% and the inhibition in vivo at 10 mg/kg (Panc02 [33]) was 44.7%. For the same compound, the inhibition at 1 µM (MIA PaCa-2 [34]) was 91%, the solubility at 24 h [35] was 0.028 µg/mL (≈ 0.0738 µM) and the Activity (CFPAC-1 [36]) was 8%. For the same compound, the inhibition at 1 µM (PaTu 8988t [37]) was 89.9%.
